Results from patent publication US6858430B1, “Process for cultivation of algae” (Council of Scientific and Industrial Research, priority 2000, dated 2005).

System: pigmented filamentous callus of Eucheuma
Experiment: Enhancement of somatic embryogenesis and micro-propagule production in embedded pigmented callus cultures by plant growth regulators
Format: cell-based, Eucheuma striatum (=Kappaphycus alvarezii)
Conditions: 23° C., one month
From the text: The production of micro-propagules clonally through somatic embryogenesis of pigmented callus has been established. The somatic embryogenesis and micro-propagule production may further be enhanced by subculturing thin section of pigmented filamentous callus blocks (2 mm×3 mm×2 mm) in 3 mm thick agar plates (0.3-0.6% agar) with PES medium as embedded cultures. The callus blocks implanted in an agar medium grew rapidly in one month and formed colored spots in an agar with abundantly growing branched filamentous pigmented callus. The newly regenerated filamentous callus from blocks eventually transformed to produce densely pigmented (dark brown colour) micro-colonies similar to somatic embryos in branches of some filaments. […] Transfer of such filamentous callus with somatic embryos from solid (agar plates) medium to liquid PES medium facilitated rapid growth and morphogenesis in micro-propagules.
The production of micro-propagules clonally through somatic embryogenesis of pigmented callus of Eucheuma has been carried out. The somatic embryogenesis and micro-propagule production may be enhanced by subculturing thin section of pigmented filamentous callus blocks (2 mm×3 mm×2 mm) in 3 mm thick agar plates (0.4% agar) with PES medium as embedded cultures at 23° C. under cool white fluorescent fights at 50 μmol photon m^−2s^−1 irradiance with a 12:12 light and dark cycle. […]

Compound	production of micro-propagules / formation of somatic embryos in pigmented filamentous callus (0.1 mg l-1 each of naphthalenacetic acid and 6-benzylaminopurine combined in 0.4% agar PES medium)	production of micro-propagules / formation of somatic embryos in pigmented filamentous callus (0.1, 1.0 mg l-1 naphthalenacetic acid alone in 0.4% agar PES medium)
c1ccc(CNc2ncnc3nc[nH]c23)cc1 [6-benzylaminopurine]	further enhanced	
naphthalenacetic acid		further enhanced
